Paper PMC9052077 (Computational and Structural Biotechnology Journal, 2022)
“Also recorded” adds a separate entry of the source. Where two headings read alike, the source gives them in different places.

Test system: HK-2 cells
Test: cells
Type: cell-based, human
Conditions: for IC50 value for HK-2 cells: 24 h
[1] = Homo sapiens, HK-2, 24 h, HK-2 cells, 24 h exposure, SRB assay, Table 1
[2] = Homo sapiens, HK-2, read-out: Activity IC50 (μM), HK-2 cells, Table 4
[3] = Homo sapiens, HK-2, read-out: Activity pIC50, HK-2 cells (converted), Table 4
[4] = Homo sapiens, HK-2, read-out: Bioactivity (μM), HK-2 cells, Table 3

Structure (SMILES) | IC50 [1] [µM] | IC50 [2] [µM] | IC50 [3] [µM] | IC50 [4] [µM] | IC50 value for HK-2 cells (HK-2 cells, SRB assay) | IC50 (HK-2 cells, 24 h exposure, SRB assay, Table 1) [µM] | Activity pIC50 (HK-2 cells, Table 4) | Actual value (pIC50) (HK-2 cells, converted from IC50 by eq 2, Table 3) | IC50 (read-out: Activity IC50, HK-2 cells, Table 4) [µM] | IC50 (read-out: Bioactivity, HK-2 cells, Table 3) [µM]
C/C=C(/C)C(=O)O[C@H]1C(C)=C2[C@H]([C@@H]1OC(=O)CCCCCCC)[C@@](C)(OC(C)=O)C[C@H](OC(=O)CCC)[C@@]1(O)[C@H]2OC(=O)[C@@]1(C)O [Compound 1, Thapsigargin] | 0.18 | 0.18 | 0.182 | 0.18 | – | – | – | – | – | –
C[C@@H]1Cc2c(Cl)cc(C(=O)N[C@@H](Cc3ccccc3)C(=O)O)c(O)c2C(=O)O1 [Compound 3, Ochratoxin A] | 46.1 | 46.1 | 45.7 | 46.1 | micromolar of tens digit | – | – | – | – | –
C[C@@H](NCCCc1cccc(C(F)(F)F)c1)c1cccc2ccccc12 [Compound 8, Cinacalcet] | 17.1 | 17.1 | 17 | 17.1 | micromolar of tens digit | – | – | – | – | –
C=CC[C@@H]1/C=C(\C)C[C@H](C)C[C@H](OC)[C@H]2O[C@@](O)(C(=O)C(=O)N3CCCC[C@H]3C(=O)O[C@H](/C(C)=C/[C@@H]3CC[C@@H](O)[C@H](OC)C3)[C@H](C)[C@@H](O)CC1=O)[C@H](C)C[C@@H]2OC [Compound 9, Tacrolimus] | 49.4 | 49.4 | 49 | 49.4 | micromolar of tens digit | – | – | – | – | –
CO[C@@]12[C@H](COC(N)=O)C3=C(C(=O)C(C)=C(N)C3=O)N1C[C@@H]1N[C@@H]12 [Compound 10, Mitomycin C] | 5.04 | 5.04 | 5.01 | 5.04 | unit digits; also recorded: micromolar of tens digit | – | – | – | – | –
COc1ccnc(C[S+]([O-])c2nc3ccc(OC(F)F)cc3[nH]2)c1OC (stereo not drawn) [Compound 11, Pantoprazole] | 300 | 300 | 302 | 300 | – | – | – | – | – | –
N.N.[Cl][Pt][Cl] [Compound 12, Cisplatin] | – | – | – | – | micromolar of tens digit | 25.4 | 4.59 | 4.59 | 25.4 | 25.4
C[C@@H]1[C@H](O)[C@@H](C)/C=C/C=C/C=C/C=C/C=C/C=C/C=C/[C@H](O[C@@H]2O[C@H](C)[C@@H](O)[C@H](N)[C@@H]2O)C[C@@H]2O[C@](O)(C[C@@H](O)C[C@@H](O)[C@H](O)CC[C@@H](O)C[C@@H](O)CC(=O)O[C@H]1C)C[C@H](O)[C@H]2C(=O)O [Compound 13, Amphotericin B] | 3.7 | 3.7 | 3.72 | 3.7 | unit digits | – | – | – | – | –
